Reference: ChEMBL document CHEMBL1151325, “New xenia diterpenes isolated from the soft coral, xenia florida” (J Nat Prod, 1998)
The source made the active and inactive calls. The calls are words filed in the database; no cut-off is given here.

How the values were obtained:
[1] = tested on: Staphylococcus aureus; assay: Antibacterial activity against Staphylococcus aureus at 100 ug/disk by paper disk method; type: functional, organism-based
[2] = tested on: Aeromonas salmonicida; assay: Antibacterial activity against Aeromonas salmonicida at 100 ug/disk by paper disk method; type: functional, organism-based

C=C1CC[C@@H]2O[C@@]2(C)CC[C@@H]2/C(=C\C=C\C(C)C)COC(=O)[C@@H]12
Activity [1]: Active | Activity [2]: Active

CC(C)/C=C/C=C1/COC(=O)[C@@H]2[C@@H]1CC[C@@]1(C)C[C@]2(O)CC[C@@H]1O
Activity [1]: Active | Activity [2]: Active
